The record followed here is US9910031B2, “Compositions and methods for modulating c-Rel-dependent cytokine production” (Synta Pharmaceuticals Corporation, priority 2003, dated 2018).

Usually IC50 stands for the concentration at which inhibition is half-maximal.

The subject of one assay is p52. Briefly: Immunoblot of nuclear p52 in THP1 cells. The class given is cell-based, human. The following applies: THP1, IFNg+LPS, 100 nM, 6 h. The protocol: Rel B and p52 are two members of Rel family, which are preferentially complexed with each other. Like p50 and p65, p52 is found in virtually all cell types, whereas c-Rel and Rel B have only been detected in lymphoid tissues. To determine the effect of Compound 2 on p52 and Rel-B nuclear translocation, THP1 cells were stimulated with IFNg+LPS in either the presence or absence of 100 nM Compound 2, and the distribution of p52 and Rel-B was determined by immunoblotting of nuclear at 6 h post-treatment.
THP-1 cells were suspended in 20 volumes of buffer A containing 10 mM KCl, 10 mM HEPES (pH 7.9), 1 mM MgCl2, 1 mM dithiothreitol (DTT), 0.1% Nonidet p40 (NP-40), and 0.5 mM phenylmethylsulfonyl fluoride (PMSF) and homogenized and centrifuged at 10,000 rpm at 4 C for 5 min. Nuclear pellets were then suspended in buffer C containing 400 mM NaCl, 20 mM HEPES 9 pH 7.9), 15 mM MgCl2, 0.2 mM EDTA, 1 mM DTT, 25% glycerol, 1 mM PMSF, and 10 ug of leupeptin, 20 ug of pepstatin, and 10 ug/ml antipain, incubated for 30 min at 4 C, and centrifuged at 14,000 rpm for 20 min. The supernatants were dialyzed against buffer D containing 100 mM NaCl, 20 mM HEPES (pH 7.9), 20% glycerol, 1 mM PMSF, and 1 mM DTT.
The 10% SDS Polyacrylamide gels (Invitrogen) were transferred to Pure Nitrocellulose membrane (BioRed, Hercules, Calif.). […]
In general terms: In western blotting, separated proteins are transferred to a membrane and probed.

A further assay has as its system p50. Nature of the assay: ELISA based transcriptional factor-DNA binding activity assay, THP-1 nuclear extracts, p50. The class given is cell-based, human. The following applies: IFN-γ/LPS, 500 nm, 3 hrs. The protocol: (§1) Nuclear extracts were prepared from IFN-γ-primed THP-1 cells that had been treated with or without SAC and incubated in the presence or absence of 1 μM Compound 1 or 10 mM ASA. Isolation of nuclear extracts was accomplished by first suspending THP-1 cells in 20 volumes of buffer A containing 10 mM KCl, 10 mM HEPES (pH 7.9), 1 mM MgCl2, 1 mM dithiothreitol (DTT), 0.1% Nonidet p40 (NP-40), and 0.5 mM phenylmethylsulfonyl fluoride (PMSF) and then homogenizing and centrifuging at 10,000 rpm at 4° C. for 5 min. Nuclear pellets were then suspended in buffer C containing 400 mM NaCl, 20 mM HEPES pH 7.9), 15 mM MgCl2, 0.2 mM EDTA, 1 mM DTT, 25% glycerol, 1 mM PMSF, and 10 μg of leupeptin, 20 μg of pepstatin, and 10 μg of antipain per ml, incubated for 30 min at 4° C., and centrifuge at 14,000 rpm for […]. The supernatants were dialyzed against buffer D containing 100 mM NaCl, 20 mM HEPES (pH 7.9), 20% glycerol, 1 mM PMSF, and 1 mM DTT.
To understand the action of Compound 2 in NF-κB binding, several NF-κB family members, p50, c-Rel and p65 were investigated using an ELISA based transcriptional factor-DNA binding activity assay system. […]

Another assay relates to NFκB. Nature of the assay: Gel-shift assay of NFκB binding to the IL-12 p40 promoter site, THP-1 nuclear extracts. The following applies: IFN-γ-primed, SAC-stimulated THP-1; 1 μM Compound 1 or 10 mM ASA. Format: cell-based, human. The method, then: as §1
The extracts obtained from this process were used in gel-shift assays using oligonucleotides containing the NFκB target sequence corresponding to the region −121 to −102 from the transcription initiation site of IL-12 p40 or a mutated NFκB binding site. […] This interaction was specific as it was competed away by an excess of unlabeled probe, but not by a mutated oligonucleotide in which two base-pairs were substituted. […]

A further assay deals with IL-12 p35 mRNA. Nature of the assay: Northern blot of IL-12 p35 mRNA in IFN-γ/SAC-stimulated human PBMC. As to conditions: hPBMC. Format: cell-based. The method, then: Northern blot analysis was performed to examine the mRNA levels of IL-12 p35 and p40. Human PBMC and the human monocyte cell line THP-1 cells were stimulated with IFN-γ/SAC in the presence or absence of Compound 1. Human PBMC were isolated by centrifugation using Ficoll-Paque (Pharmacia Biotech, Uppsala, Sweden) and prepared in RPMI medium supplemented with 10% fetal calf serum (FCS), 100 U/ml penicillin, and 100 μg/ml streptomycin, in a 96-well plate with 5×10^5 cells/well. The cells were then primed with IFN-γ (100 U/ml) and followed by 0.01% SAC or 1 μg/ml LPS, in the presence of different concentrations of Compound 2 or other compounds. The test compounds were prepared in DMSO and the final DMSO concentration was adjusted to 0.25% in all cultures, including the compound-free control. Cell-free supernatants were taken 18 h later for the measurement of cytokines. The THP-1 cells were obtained from American Type Culture Collection (Manassas, Va.) and were cultured in RPMI 1640 (ATCC, Manassas, Va.), supplemented with 10% FCS (ATCC, Manassas, Va.), and 1% penicillin/Streptomycin (Gibco-BRL, New York, N.Y.). Total RNA was isolated and subjected to Northern blot analysis using IL-12 p35 and p40 cDNA probes. We first examined the kinetics of mRNA accumulation in cultures of hPBMC and THP-1 cells primed with IFN-γ followed by SAC stimulation in the presence or absence of 1 μM Compound 1.
We conducted a dose-response study of the inhibitory effects of Compound 1 on IL-12 mRNA expression in IFN-γ/SAC-stimulated hPBMC. Because both IL-12 p35 and p40 mRNA levels were maximal at 6 h after the addition of SAC, this time point was selected for the dose-response analysis.

For `Cc1cccc(C=NNc2cc(N3CCOCC3)nc(OCCc3ccccn3)n2)c1` [Compound 2, N-(3-methyl-benzylidene)-N′-[6-morpholin-4-yl-2-(2-pyridin-2-yl-ethoxy)-pyrimidin-4-yl]-hydrazine], in the assay with p52, the “nuclear p52 (FIG. 11)” value is recorded as “No significant difference”. Besides, the “binding activity of p50” value in the assay on p50 is “slightly decreased”.
As for `C(=NNc1nc(OCCc2ccccn2)nc(N2CCOCC2)n1)c1c[nH]c2ccccc12` [Compound 1, N-(1H-indol-3-ylmethylene)-N′-[4-morpholin-4-yl-6-(2-pyridin-2-yl-ethoxy)-[1,3,5]triazin-2-yl]-hydrazine], in the assay with NFκB, the “NFκB binding to p40 promoter probe (gel shift)” value was “did not show any influence”. Moreover, in the assay with IL-12 p35 mRNA (Homo sapiens, PBMC, 6 h after SAC, read-out: IC50, IL-12 p35 mRNA accumulation), the IC50 was less than 1 nM. In addition, the “expression of p35 mRNA” value in the assay on IL-12 p35 mRNA (1 μM Compound 1, all sampling times) is on record as “completely inhibited”. Also, in the assay on IL-12 p35 mRNA (6 h after SAC, 3 nM), the “induction of IL-12 p35 mRNA accumulation” value is reported as “completely reversed”.
